Laboratory results: patent US20230157952A1, “METHOD FOR IMPROVING THE STABILITY OF A PHARMACEUTICAL COMPOSITION COMPRISING A HIGH PENETRATION DRUG, AND THE PHARMACEUTICAL COMPOSITION OBTAINED THEREFROM” (Techfields Inc., priority 2020, published 2023)

What was measured:
[1] = Effect of pH value on the stability of the solution (purity); assay type: physicochemical; conditions: 25° C.
[2] = Effect of temperature (and pH) on the stability of the solution (purity); assay type: physicochemical; conditions: 7% solution in water
[3] = Stability of the pure HPDs (dry solid) at 25° C./RH 60%; assay type: physicochemical; conditions: pure HPD, 25° C./RH 60%, listed as A-1-1
[4] = Effect of concentration on the stability of the solution (purity over time); conditions: in water at 25° C.

Purity(%) from day 0-28 ([1]; day 28, pH 1.0, 7% solution in water): 68.9 ± 0.3%
Purity(%) from day 0-28 ([1]; day 28, pH 2.0, 7% solution in water): 80.9 ± 0.4%
Purity(%) from day 0-28 ([1]; day 28, pH 3.0, 7% solution in water): 90.3 ± 0.3%
Purity(%) from day 0-28 ([1]; day 28, pH 3.7, 7% solution in water): 97.2 ± 0.2%
Purity(%) from day 0-28 ([1]; day 28, pH 5.0, 7% solution in water): 96.3 ± 0.2%
Purity(%) from day 0-28 ([1]; day 28, pH 6.0, 7% solution in water): 89.9 ± 0.3%
Purity(%) from day 0-28 ([1]; day 28, pH 7.0, 7% solution in water): 65.8 ± 0.3%
Purity(%) from day 0-28 ([1]; day 28, pH 8.0, 7% solution in water): 45.8 ± 0.4%
Stability of the solution at a temperature higher than 40° C. and a pH lower than 3 or greater than 6 [2]: not stable
Purity ([3]; 3 month): 98.6 ± 0.1
Purity ([3]; 6 month): 98.8 ± 0.1
Purity ([3]; Day 0): 98.8 ± 0.2
Purity at Day 3 ([4]; 0.01 wt %): 79.6%
Purity at Day 7 ([4]; 0.01 wt %): 73.4%
Purity at Day 14 ([4]; 0.01 wt %): 68.7%
Purity at Day 21 ([4]; 0.01 wt %): 64.5%
Purity at Day 28 ([4]; 0.01 wt %): 61.4%
Purity at hr 24 ([4]; 0.01 wt %): 91.7%
Purity at Day 7 ([4]; 0.1 wt %): 97.2%
Purity at Day 14 ([4]; 0.1 wt %): 96.1%
Purity at Day 21 ([4]; 0.1 wt %): 95.4%
Purity at Day 28 ([4]; 0.1 wt %): 94.1%
Purity at Day 14 ([4]; 1 wt %): 97.4%
Purity at Day 21 ([4]; 1 wt %): 96.9%
Purity at Day 28 ([4]; 1 wt %): 96.4%
Purity at Day 21 ([4]; 3 wt %): 97.6%
Purity at Day 28 ([4]; 3 wt %): 97.1%
Purity at Day 28 ([4]; 5 wt %): 97.5%
Purity at Day 21 ([4]; 8 wt %): 97.5%
Purity at Day 28 ([4]; 8 wt %): 97.6%
Purity at Day 21 ([4]; 10 wt %): 97.4%
Purity at Day 28 ([4]; 10 wt %): 97.6%
Purity at Day 21 ([4]; 15 wt %): 97.5%
Purity at Day 28 ([4]; 15 wt %): 97.6%
Purity at Day 21 ([4]; 20 wt %): 97.4%
Purity at Day 28 ([4]; 20 wt %): 97.6%
Stability when the concentration is 0.1% or lower [4]: not stable
Compound: CCN(CC)CCOC(=O)[C@H](C)c1ccc2cc(OC)ccc2c1.Cl (racemic) [2-(diethylamino)ethyl (R,S)-2-(6-methoxy-2-naphthyl)propionate•HCl]
